From PubChem BioAssay (NCI)
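Compound exposure: 48 hours, 5 concentrations, 96-well plates. GI50 = concentration required for 50% inhibition of growth. The concentration for full growth arrest is given as TGI.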

Tests used:
Test in all cases: NCI-60 cell line screen, 48 h
[1] = test system: IGROV1 ovarian
[2] = test system: SN12C renal
[3] = test system: MDA-MB-231 breast
[4] = test system: HCC-2998 colon
[5] = test system: A549 NSCLC
[6] = test system: NCI-H23 lung
[7] = test system: MDA-MB-435
[8] = test system: MOLT-4 leukemia
[9] = test system: LOX IMVI melanoma
[10] = test system: ACHN renal
[11] = test system: HT29 colon
[12] = test system: UACC-62 melanoma
[13] = test system: DU-145 prostate
[14] = test system: SF-268 CNS
[15] = test system: NCI/ADR-RES ovarian
[16] = test system: HOP-62 NSCLC
[17] = test system: CCRF-CEM leukemia
[18] = test system: OVCAR-4 ovarian
[19] = test system: UO-31 renal
[20] = test system: SNB-75 CNS
[21] = test system: NCI-H226 lung
[22] = test system: HCT-15 colon
[23] = test system: MALME-3M melanoma
[24] = test system: COLO 205 colon
[25] = test system: EKVX NSCLC
[26] = test system: HL-60(TB) leukemia
[27] = test system: SK-MEL-5 melanoma
[28] = test system: RPMI-8226 leukemia
[29] = test system: MCF7 breast
[30] = test system: NCI-H460 lung
[31] = test system: SF-295 CNS
[32] = test system: SR leukemia
[33] = test system: SK-MEL-28 melanoma
[34] = test system: OVCAR-5 ovarian
[35] = test system: TK-10 renal
[36] = test system: HOP-92 NSCLC
[37] = test system: OVCAR-3 ovarian
[38] = test system: SW-620 colon
[39] = test system: HCT-116 colon
[40] = test system: M14 melanoma
[41] = test system: PC-3 prostate
[42] = test system: A498 renal
[43] = test system: 786-0 renal
[44] = test system: OVCAR-8 ovarian
[45] = test system: HS 578T breast
[46] = test system: SK-OV-3 ovarian
[47] = test system: SK-MEL-2 melanoma
[48] = test system: KM12 colon
[49] = test system: UACC-257 melanoma
[50] = test system: BT-549 breast
[51] = test system: K-562 leukemia
[52] = test system: NCI-H522 lung
[53] = test system: CAKI-1 renal
[54] = test system: SNB-19 CNS
[55] = test system: T-47D breast
[56] = test system: RXF 393 renal
[57] = test system: SF-539 CNS
[58] = test system: U251 CNS

SMILES: O=c1oc2ccc(Cl)cc2c(=O)n1-c1cc(C(F)(F)F)cc(C(F)(F)F)c1
- GI50 [1]: 412 nM
- TGI [1]: 12900 nM
- GI50 [2]: 259 nM
- TGI [2]: 3800 nM
- GI50 [3]: 289 nM
- TGI [3]: 4360 nM
- GI50 [4]: 346 nM
- TGI [4]: 3770 nM
- GI50 [5]: 339 nM
- TGI [5]: 13100 nM
- GI50 [6]: 289 nM
- TGI [6]: 1110 nM
- GI50 [7]: 313 nM
- TGI [7]: 2070 nM
- GI50 [8]: 352 nM
- TGI [8]: 2480 nM
- GI50 [9]: 366 nM
- TGI [9]: 2330 nM
- GI50 [10]: 303 nM
- TGI [10]: 10500 nM
- GI50 [11]: 2120 nM
- TGI [11]: 14600 nM
- GI50 [12]: 147 nM
- TGI [12]: 673 nM
- GI50 [13]: 372 nM
- TGI [13]: 13900 nM
- GI50 [14]: 262 nM
- TGI [14]: 5500 nM
- GI50 [15]: 264 nM
- TGI [15]: 1370 nM
- GI50 [16]: 352 nM
- TGI [16]: 4360 nM
- GI50 [17]: 388 nM
- TGI [17]: 10200 nM
- GI50 [18]: 292 nM
- TGI [18]: 29200 nM
- GI50 [19]: 238 nM
- TGI [19]: 831 nM
- GI50 [20]: 201 nM
- TGI [20]: 786 nM
- GI50 [21]: 305 nM
- TGI [21]: 2210 nM
- GI50 [22]: 306 nM
- TGI [22]: 1780 nM
- GI50 [23]: 222 nM
- TGI [23]: 696 nM
- GI50 [24]: 1780 nM
- TGI [24]: 3720 nM
- GI50 [25]: 288 nM
- TGI [25]: 2010 nM
- GI50 [26]: 231 nM
- TGI [26]: 553 nM
- GI50 [27]: 138 nM
- TGI [27]: 336 nM
- GI50 [28]: 188 nM
- TGI [28]: 712 nM
- GI50 [29]: 278 nM
- TGI [29]: 13500 nM
- GI50 [30]: 308 nM
- TGI [30]: 5160 nM
- GI50 [31]: 206 nM
- TGI [31]: 504 nM
- GI50 [32]: 308 nM
- TGI [32]: > 51000 nM
- GI50 [33]: 273 nM
- TGI [33]: 1690 nM
- GI50 [34]: 423 nM
- TGI [34]: 17400 nM
- GI50 [35]: 395 nM
- TGI [35]: 11000 nM
- GI50 [36]: 112 nM
- TGI [36]: 479 nM
- GI50 [37]: 276 nM
- TGI [37]: 10700 nM
- GI50 [38]: 328 nM
- TGI [38]: 5950 nM
- GI50 [39]: 277 nM
- TGI [39]: 1210 nM
- GI50 [40]: 300 nM
- TGI [40]: 1780 nM
- GI50 [41]: 302 nM
- TGI [41]: 4490 nM
- GI50 [42]: 53.1 nM
- TGI [42]: 311 nM
- GI50 [43]: 316 nM
- TGI [43]: 1140 nM
- GI50 [44]: 323 nM
- GI50 [45]: 239 nM
- TGI [45]: 987 nM
- GI50 [46]: 205 nM
- TGI [46]: 2380 nM
- GI50 [47]: 236 nM
- TGI [47]: 846 nM
- GI50 [48]: 342 nM
- TGI [48]: 1320 nM
- GI50 [49]: 233 nM
- TGI [49]: 1600 nM
- GI50 [50]: 258 nM
- TGI [50]: 860 nM
- GI50 [51]: 211 nM
- TGI [51]: > 38000 nM
- GI50 [52]: 250 nM
- TGI [52]: 2570 nM
- GI50 [53]: 198 nM
- TGI [53]: 689 nM
- GI50 [54]: 293 nM
- TGI [54]: 11700 nM
- GI50 [55]: 229 nM
- TGI [55]: 2400 nM
- GI50 [56]: 228 nM
- TGI [56]: 746 nM
- GI50 [57]: 317 nM
- TGI [57]: 1740 nM
- GI50 [58]: 254 nM
- TGI [58]: 11600 nM
